One test has as its target T1, mouse P2X7R (Mus musculus, UniProt Q9Z1M0).
T1 construct: expressed in transfected cells
T1 sequence (Q9Z1M0 1-595): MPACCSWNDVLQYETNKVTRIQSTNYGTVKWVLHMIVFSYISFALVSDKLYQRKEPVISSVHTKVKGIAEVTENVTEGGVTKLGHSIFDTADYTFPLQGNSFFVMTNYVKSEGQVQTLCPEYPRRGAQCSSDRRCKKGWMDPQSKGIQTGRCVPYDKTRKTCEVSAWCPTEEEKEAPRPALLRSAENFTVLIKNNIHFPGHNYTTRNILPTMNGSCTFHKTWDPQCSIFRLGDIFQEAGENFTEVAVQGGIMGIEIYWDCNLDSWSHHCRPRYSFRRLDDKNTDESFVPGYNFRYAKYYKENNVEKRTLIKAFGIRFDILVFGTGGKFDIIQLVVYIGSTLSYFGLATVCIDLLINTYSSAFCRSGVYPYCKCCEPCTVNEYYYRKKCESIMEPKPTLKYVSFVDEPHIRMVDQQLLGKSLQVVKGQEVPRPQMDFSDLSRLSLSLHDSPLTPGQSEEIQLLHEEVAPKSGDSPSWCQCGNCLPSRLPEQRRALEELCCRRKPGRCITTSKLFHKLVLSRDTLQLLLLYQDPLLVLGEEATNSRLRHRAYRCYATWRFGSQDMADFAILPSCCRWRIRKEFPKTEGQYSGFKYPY
The test is described as follows: fluorometric Ca2+ assay (ATP-induced [Ca2+]i response) in HEKmP2X7 cells. The class given is cell-based. The settings on record: fluo-4, 1 mM ATP, read-out: Potency IC50 ± SEM, Mouse P2X7R. On the procedure: (§1) Cells were grown in a humidified incubator at 37°C in an atmosphere supplemented with 5% CO2. […] HEK293mP2X7 were cultured in DMEM under similar conditions as described above, but containing 100 μg/ml zeocin (Invitrogen). […] Expression of the transgene was induced by supplementing the medium with 1 μg/ml tetracycline (Sigma-Aldrich, Taufkirchen, Germany) 24 h prior to the experiments. All fluorometric Ca^2+ assays in cell suspensions were performed in 384-microwell plates (Corning, No. 3655, Lowell, MA, USA) with a fluorescence-imaging microplate reader (POLARstar Omega, BMG Labtech, Offenburg, Germany) (for details, see [61, 68]). […] Microwell plates were repetitively scanned every 16 s in the fast scanning mode of the device. […] Data were normalized to the baseline values before ATP application (F/F0). […] ATP-solution was freshly prepared in Mg^2+-free HBS solution and adjusted to pH 7.4. Aliquots of stock solutions were stored at -20°C and freshly diluted with the appropriate HBS solution. […] Results are expressed as mean ± SEM. […] In the PTZ-T, the number of animals in the group with clonic seizures and the latency time were analysed using Fisher's exact probability test and the Mann-Whitney rank sum test, respectively. For multiple comparisons of the latency time a one-way ANOVA with the Holm-Sidak post hoc test was used. The influence of AFC on the plasma and brain concentrations of the antiepileptic drugs was statistical compared using the same procedure. In the PTZ-kindling model, the mean seizure stage within a group was calculated in relation to the number of PTZ-injections. Statistical comparison between vehicle- and compound-treated groups in this model was performed with two-way repeated measures ANOVA, followed by the Holm-Sidak post hoc test. […] In fully kindled rats, the calculated mean seizure stage within a group after vehicle- and compound-treatment were compared using a paired t-test. P < 0.05 was the accepted minimum level of significance.

The target in a further test is T2, rat P2X7R (Rattus norvegicus, UniProt Q64663).
T2 construct: expressed in transfected cells; host or cells: HEK293 Flp-In T-REx (HEKrP2X7), tetracycline-induced
T2 sequence (Q64663 1-595): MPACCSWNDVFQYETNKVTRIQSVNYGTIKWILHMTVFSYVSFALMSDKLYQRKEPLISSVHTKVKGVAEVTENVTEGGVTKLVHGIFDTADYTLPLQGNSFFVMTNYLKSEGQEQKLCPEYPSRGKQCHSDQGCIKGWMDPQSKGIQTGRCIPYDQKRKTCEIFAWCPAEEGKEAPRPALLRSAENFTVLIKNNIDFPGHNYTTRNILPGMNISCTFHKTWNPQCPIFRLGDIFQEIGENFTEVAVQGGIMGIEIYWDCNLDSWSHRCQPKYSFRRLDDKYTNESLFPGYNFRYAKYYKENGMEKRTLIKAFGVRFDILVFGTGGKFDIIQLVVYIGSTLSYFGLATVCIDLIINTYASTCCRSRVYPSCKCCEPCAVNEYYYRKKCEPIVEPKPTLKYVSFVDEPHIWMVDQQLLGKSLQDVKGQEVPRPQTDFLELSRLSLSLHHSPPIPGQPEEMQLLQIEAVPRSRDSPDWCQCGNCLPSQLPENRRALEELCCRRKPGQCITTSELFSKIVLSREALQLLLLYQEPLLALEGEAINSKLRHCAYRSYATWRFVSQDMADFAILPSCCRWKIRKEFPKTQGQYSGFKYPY
The test is described as follows: fluorometric Ca2+ assay (ATP-induced [Ca2+]i response) in HEKrP2X7 cells. Type of test: cell-based. Particulars: HEKrP2X7 cells, fluo-4, 1 mM ATP; read-out: Potency IC50 ± SEM, Rat P2X7R. On the procedure: as §1

A further test deals with T3, human P2X7R (Homo sapiens, UniProt Q99572).
T3 construct: expressed in transfected cells
T3 sequence (Q99572 1-595): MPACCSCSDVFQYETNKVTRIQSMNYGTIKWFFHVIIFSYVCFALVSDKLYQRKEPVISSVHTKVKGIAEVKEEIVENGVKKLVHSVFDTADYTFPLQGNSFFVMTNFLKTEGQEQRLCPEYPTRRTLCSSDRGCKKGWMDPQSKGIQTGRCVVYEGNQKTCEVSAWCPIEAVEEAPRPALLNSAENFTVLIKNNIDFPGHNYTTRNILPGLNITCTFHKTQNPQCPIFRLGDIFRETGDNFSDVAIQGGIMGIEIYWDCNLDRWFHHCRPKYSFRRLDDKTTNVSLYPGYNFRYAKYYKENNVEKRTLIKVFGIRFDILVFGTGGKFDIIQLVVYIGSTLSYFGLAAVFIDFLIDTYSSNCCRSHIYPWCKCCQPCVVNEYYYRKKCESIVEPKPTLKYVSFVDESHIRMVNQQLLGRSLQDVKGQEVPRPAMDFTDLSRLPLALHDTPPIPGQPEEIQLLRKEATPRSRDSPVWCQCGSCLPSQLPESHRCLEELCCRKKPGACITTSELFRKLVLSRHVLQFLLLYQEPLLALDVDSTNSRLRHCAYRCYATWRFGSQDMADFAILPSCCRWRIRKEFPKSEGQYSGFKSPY
Nature of the test: fluorometric Ca2+ assay (ATP-induced [Ca2+]i response) in HEKhP2X7 cells. Type of test: cell-based. The settings on record: fluo-4, 1 mM ATP, read-out: Potency IC50 ± SEM, Human P2X7R. The protocol:
as §1

For test [1], the system named is PTZ-induced seizures in fully PTZ-kindled rats. Nature of the test: PTZ-induced seizures in fully kindled rats. Type of test: in vivo. The settings on record: fully kindled rats; 100 mg/kg i.p.; pre-drug (vehicle) value 4.0. The text has this: Results were expressed as mean seizure stages of a tested group in which the seizure behaviour after vehicle treatment (vehicle seizure stage) and after compound treatment (compound seizure stage), examined 3-4 days later, was matched. For comparison, the effectiveness of two antiepileptic drugs (carbamazepine and valproate) was also investigated. […] Chemicals, Toronto, Canada) was slowly added. The pH was adjusted with 1N NaOH (similar amount of NaOH as HCl), all with continuous stirring. […] The drug solutions or suspensions were prepared immediately before use; all doses refer to the salts. Animals in the control group received equivalent volumes of the vehicle (in mice always 10 ml/kg, in rats 1 ml/kg [JNJ], 3 ml/kg [AFC] or 4 ml/kg [BBG, TIIAS], depending on the solubility of the different compounds). Doses and peak time effects were selected on the basis of effective doses from corresponding in vivo studies in the literature: BBG (e.g.), tanshinone IIA (e.g.) and from manufacturer's experimental data: AFC, JNJ (see, [80]). Data were analysed using SigmaPlot (vers. 12.0, Systat Software, Erkrath, Germany) and SPSS (IBM SPSS Statistics 20, […], Germany), respectively. Results are expressed as mean ± SEM. […] In the MES-T, the current intensity inducing tonic hindlimb extensions in 50% of the mice (CC50 values with confidence limits for 95% probability) and the statistical significance was calculated using Probit analysis (SPSS). […] In the PTZ-T, the number of animals in the group with clonic seizures and the latency time were analysed using Fisher's exact probability test and the Mann-Whitney rank sum test, respectively. For multiple comparisons of the latency time a one-way ANOVA with the Holm-Sidak post hoc test was used. The influence of AFC on the plasma and brain concentrations of the antiepileptic drugs was statistical compared using the same procedure. In the PTZ-kindling model, the mean seizure stage within a group was calculated in relation to the number of PTZ-injections. Statistical comparison between vehicle- and compound-treated groups in this model was performed with two-way repeated measures ANOVA, followed by the Holm-Sidak post hoc test. The mean number of PTZ-injections needed to produce the first generalized seizure (≥ stage 3 convulsions) in the vehicle- versus compound-treated groups was statistically compared using a Mann-Whitney rank sum test. In fully kindled rats, the calculated mean seizure stage within a group after vehicle- and compound-treatment were compared using a paired t-test. P < 0.05 was the accepted minimum level of significance.

Counter-ions that a name gives are not always drawn.

What is called IC50 is the concentration at which inhibition is half-maximal. As to `Clc1cccc(-c2nnnn2Cc2cccnc2)c1Cl` [A-438079, 3-[[5-(2,3-dichlorophenyl)-1H-tetrazol-1yl]methyl]pyridine hydrochloride hydrate], the IC50 at mouse P2X7R amounted to 280 ± 20 nM; on rat P2X7R, 220 ± 10 nM; on human P2X7R, 70 ± 9 nM.
`O=C(CC12CC3CC(CC(C3)C1)C2)Nc1cccc2nc(NCCNCCO)ccc12` [AZ-10606120, N-[2-[[2-[(2-hydroxyethyl)amino]ethyl]amino]-5-quinolinyl]-2-tricyclo[3.3.1.13,7]dec-1-ylacetamide dihydrochloride]: the half-maximal inhibitory concentration (IC50) came out at 120 ± 5 nM on mouse P2X7R and 20 ± 2 nM at rat P2X7R.
Consider `CCCC(CCC)C(=O)O` [Ca-valproate, Ca-valproate dihydrate], for which, in test [1], the “mean seizure stage, post-drug” value stood at 1.1.

(Values after publication PMC4900628, “Critical Evaluation of P2X7 Receptor Antagonists in Selected Seizure Models” (PLoS ONE, 2016).)
